Measurements reported in the NIST ThermoML archive (doi:10.1021/je200806n).

Experiment: xn = mol fraction of the nth substance listed
Settings: 101.3 kPa, Liquid

CCCCC(C)O (centres undefined) [2-hexanol] + O=C1CCCCC1
Settings	mass density, 298.15 K [kg/m3]	mass density, 303.15 K [kg/m3]	mass density, 308.15 K [kg/m3]	mass density, 313.15 K [kg/m3]	viscosity, 298.15 K [mPa·s]	viscosity, 303.15 K [mPa·s]	viscosity, 308.15 K [mPa·s]	viscosity, 313.15 K [mPa·s]
x2 = 0	810.14	806.13	802.06	797.96	4.101	3.411	2.819	2.219
x2 = 0.0821	818.43	814.12	809.89	805.91	3.432	2.834	2.278	1.686
x2 = 0.1612	826.61	822.29	818.07	814.07	2.879	2.346	1.823	1.307
x2 = 0.2409	835.25	830.81	826.44	822.41	2.406	1.932	1.453	1.024
x2 = 0.3496	847.88	843.37	838.88	834.71	1.896	1.477	1.122	0.781
x2 = 0.4391	858.93	854.32	849.76	845.48	1.591	1.23	0.949	0.679
x2 = 0.56	874.62	869.92	865.28	860.83	1.359	1.08	0.873	0.655
x2 = 0.649	886.88	882.07	877.39	872.97	1.325	1.082	0.907	0.727
x2 = 0.7391	899.87	895.12	890.41	885.97	1.388	1.173	1.026	0.85
x2 = 0.8492	916.79	912.01	907.19	902.71	1.576	1.4	1.249	1.068
x2 = 0.9395	931.44	926.63	921.93	917.21	1.842	1.662	1.505	1.326

O=C1CCCCC1 [cyclohexanone] + CC(C)O
Settings	mass density, 298.15 K [kg/m3]	mass density, 303.15 K [kg/m3]	mass density, 308.15 K [kg/m3]	mass density, 313.15 K [kg/m3]	viscosity, 298.15 K [mPa·s]	viscosity, 303.15 K [mPa·s]	viscosity, 308.15 K [mPa·s]	viscosity, 313.15 K [mPa·s]
x1 = 0.0812	797.69	792.97	788.11	783.28	1.689	1.489	1.301	1.142
x1 = 0.1576	812.54	807.67	802.73	797.79	1.436	1.268	1.098	0.961
x1 = 0.2398	827.76	822.83	817.68	812.71	1.236	1.081	0.934	0.817
x1 = 0.3495	846.99	841.93	836.59	831.76	1.067	0.934	0.809	0.715
x1 = 0.4363	861.43	856.27	851.05	846.26	1.023	0.899	0.779	0.689
x1 = 0.5601	880.96	875.76	870.51	865.33	1.076	0.951	0.845	0.751
x1 = 0.6502	894.41	889.21	884.09	878.95	1.177	1.056	0.949	0.854
x1 = 0.7403	907.32	902.15	897.23	892.17	1.331	1.202	1.087	0.995
x1 = 0.8481	922.15	917.06	912.28	907.09	1.581	1.437	1.301	1.211
x1 = 0.9384	934.01	929.05	924.41	919.35	1.845	1.675	1.537	1.412
x1 = 1	941.91	937.24	932.67	927.72	2.057	1.847	1.694	1.546

CC(C)O [propan-2-ol] + O=C1CCCCC1
x2 = 0
Settings	mass density [kg/m3]	viscosity [mPa·s]
298.15 K	781.09	2.055
303.15 K	776.57	1.788
308.15 K	771.87	1.563
313.15 K	767.36	1.378

CCC(C)O (centres undefined) [butan-2-ol] + O=C1CCCCC1
x2 = 0
Settings	mass density [kg/m3]	viscosity [mPa·s]
298.15 K	803.01	3.104
303.15 K	798.29	2.597
308.15 K	793.57	2.152
313.15 K	789.15	1.733

O=C1CCCCC1 [cyclohexanone] + CCCCCC(C)O
x1 = 1
Settings	mass density [kg/m3]	viscosity [mPa·s]
298.15 K	941.91	2.057
303.15 K	937.24	1.847
308.15 K	932.67	1.694
313.15 K	927.72	1.546

O=C1CCCCC1 [cyclohexanone] + CCCC(C)O
x1 = 1
Settings	mass density [kg/m3]	viscosity [mPa·s]
298.15 K	941.91	2.057
303.15 K	937.24	1.847
308.15 K	932.67	1.694
313.15 K	927.72	1.546

O=C1CCCCC1 [cyclohexanone] + CCC(C)O
Settings	mass density, 298.15 K [kg/m3]	mass density, 303.15 K [kg/m3]	mass density, 308.15 K [kg/m3]	mass density, 313.15 K [kg/m3]	viscosity, 298.15 K [mPa·s]	viscosity, 303.15 K [mPa·s]	viscosity, 308.15 K [mPa·s]	viscosity, 313.15 K [mPa·s]
x1 = 0.0814	814.99	811.03	805.17	800.53	2.511	2.163	1.828	1.441
x1 = 0.1598	826.39	822.21	816.34	811.48	2.067	1.82	1.561	1.186
x1 = 0.2444	838.54	834.13	828.18	823.15	1.737	1.535	1.33	0.982
x1 = 0.3514	853.71	849.09	843.19	838.01	1.472	1.305	1.128	0.841
x1 = 0.4404	866.19	861.39	855.62	850.33	1.361	1.206	1.039	0.794
x1 = 0.5596	882.62	877.71	872.19	866.91	1.332	1.183	1.036	0.825
x1 = 0.6523	895.31	890.36	884.99	879.69	1.4	1.249	1.108	0.914
x1 = 0.738	906.94	901.93	896.81	891.52	1.501	1.354	1.224	1.051
x1 = 0.8494	921.86	916.99	912.09	907.01	1.704	1.558	1.41	1.248
x1 = 0.9361	933.34	928.57	924.04	918.99	1.889	1.716	1.572	1.43
x1 = 1	941.91	937.24	932.67	927.72	2.057	1.847	1.694	1.546

O=C1CCCCC1 [cyclohexanone] + CCCCC(C)O
x1 = 1
Settings	mass density [kg/m3]	viscosity [mPa·s]
298.15 K	941.91	2.057
303.15 K	937.24	1.847
308.15 K	932.67	1.694
313.15 K	927.72	1.546
